This is an account of results in PubChem BioAssay AID1259407 (Chemical Carcinogenesis Research Information System (CCRIS), 2018).

Calls of active or inactive are those of the source. No rule for the calls is given here.

This data set concerns CCRIS mutagenicity, Ames/micronucleus/aberration tests. Kind of data set: CCRIS mutagenicity studies.
Setting [1] is: Test System: AMES SALMONELLA TYPHIMURIUM, Strain/Indicator: TA100, Metabolic Activation: NONE, Method: PREINCUBATION
The mark [2] stands for this setting: Test System: AMES SALMONELLA TYPHIMURIUM, Strain/Indicator: TA98, Metabolic Activation: NONE, Method: STANDARD PLATE.
Where [3] appears, read: Test System: AMES SALMONELLA TYPHIMURIUM, Strain/Indicator: TA100, Metabolic Activation: NONE, Method: STANDARD PLATE.
Setting [4] is: Test System: AMES SALMONELLA TYPHIMURIUM, Strain/Indicator: TA1535, Metabolic Activation: NONE, Method: STANDARD PLATE.
[5] abbreviates: Test System: AMES SALMONELLA TYPHIMURIUM, Strain/Indicator: TA1537, Metabolic Activation: NONE, Method: STANDARD PLATE.

`O=[N+]([O-])c1c(Cl)c(Cl)cc(Cl)c1Cl`: the mutagenic call (End Point: IN VITRO CHROMOSOMAL ABERRATIONS, Test System: CHINESE HAMSTER OVARY CELLS, Metabolic Activation: NONE) is “inactive; negative”; the mutagenic call (End Point: IN VITRO CHROMOSOMAL ABERRATIONS, Test System: CHINESE HAMSTER OVARY CELLS, Metabolic Activation: RAT, LIVER, S-9, AROCLOR 1254) is “inactive; negative”; the mutagenic call (Test System: AMES SALMONELLA TYPHIMURIUM, Strain/Indicator: TA98, Metabolic Activation: HAMSTER, LIVER, S-9, AROCLOR 1254, Method: PREINCUBATION) is “inactive; negative”; the mutagenic call (Test System: AMES SALMONELLA TYPHIMURIUM, Strain/Indicator: TA98, Metabolic Activation: NONE, Method: PREINCUBATION) was “inactive; negative”; the mutagenic call (Test System: AMES SALMONELLA TYPHIMURIUM, Strain/Indicator: TA98, Metabolic Activation: RAT, LIVER, S-9, AROCLOR 1254, Method: PREINCUBATION) was “inactive; negative”; the mutagenic call (Test System: AMES SALMONELLA TYPHIMURIUM, Strain/Indicator: TA100, Metabolic Activation: HAMSTER, LIVER, S-9, AROCLOR 1254, Method: PREINCUBATION) is “inactive; negative”. Moreover, the mutagenic call runs as follows: under setting [1], “inactive; negative”; (Test System: AMES SALMONELLA TYPHIMURIUM, Strain/Indicator: TA100, Metabolic Activation: RAT, LIVER, S-9, AROCLOR 1254, Method: PREINCUBATION) “inactive; negative”; (Test System: AMES SALMONELLA TYPHIMURIUM, Strain/Indicator: TA1535, Metabolic Activation: HAMSTER, LIVER, S-9, AROCLOR 1254, Method: PREINCUBATION) “inactive; negative”; (Test System: AMES SALMONELLA TYPHIMURIUM, Strain/Indicator: TA1535, Metabolic Activation: NONE, Method: PREINCUBATION) “inactive; negative”; (Test System: AMES SALMONELLA TYPHIMURIUM, Strain/Indicator: TA1535, Metabolic Activation: RAT, LIVER, S-9, AROCLOR 1254, Method: PREINCUBATION) “inactive; negative”; (Test System: AMES SALMONELLA TYPHIMURIUM, Strain/Indicator: TA1537, Metabolic Activation: HAMSTER, LIVER, S-9, AROCLOR 1254, Method: PREINCUBATION) “inactive; negative”. Besides, the mutagenic call (Test System: AMES SALMONELLA TYPHIMURIUM, Strain/Indicator: TA1537, Metabolic Activation: NONE, Method: PREINCUBATION) was “inactive; negative” and the mutagenic call (Test System: AMES SALMONELLA TYPHIMURIUM, Strain/Indicator: TA1537, Metabolic Activation: RAT, LIVER, S-9, AROCLOR 1254, Method: PREINCUBATION) was “inactive; negative”.
Consider `FC(F)C(F)(F)F`, for which the mutagenic call under setting [2] is “inactive; negative”; the mutagenic call (Test System: AMES SALMONELLA TYPHIMURIUM, Strain/Indicator: TA98, Metabolic Activation: RAT, LIVER, S-9, AROCLOR 1254, Method: STANDARD PLATE) was “inactive; negative”; the mutagenic call under setting [3] was “inactive; negative”; the mutagenic call (Test System: AMES SALMONELLA TYPHIMURIUM, Strain/Indicator: TA100, Metabolic Activation: RAT, LIVER, S-9, AROCLOR 1254, Method: STANDARD PLATE) was “inactive; negative”; the mutagenic call under setting [4] was “inactive; negative”; the mutagenic call (Test System: AMES SALMONELLA TYPHIMURIUM, Strain/Indicator: TA1535, Metabolic Activation: RAT, LIVER, S-9, AROCLOR 1254, Method: STANDARD PLATE) was “inactive; negative”. Further, the mutagenic call reads like this: under setting [5], “inactive; negative”; (Test System: AMES SALMONELLA TYPHIMURIUM, Strain/Indicator: TA1537, Metabolic Activation: RAT, LIVER, S-9, AROCLOR 1254, Method: STANDARD PLATE) “inactive; negative”; (Test System: AMES SALMONELLA TYPHIMURIUM, Strain/Indicator: TA1538, Metabolic Activation: NONE, Method: STANDARD PLATE) “inactive; negative”; (Test System: AMES SALMONELLA TYPHIMURIUM, Strain/Indicator: TA1538, Metabolic Activation: RAT, LIVER, S-9, AROCLOR 1254, Method: STANDARD PLATE) “inactive; negative”; (Test System: E. COLI, Strain/Indicator: WP2 UVRA, Metabolic Activation: NONE, Method: STANDARD PLATE) “inactive; negative”; (Test System: E. COLI, Strain/Indicator: WP2 UVRA, Metabolic Activation: RAT, LIVER, S-9, AROCLOR 1254, Method: STANDARD PLATE) “inactive; negative”.
With `CNC(=O)CSP(=S)(OC)OC`, the mutagenic call by setting is: (End Point: In vitro chromosomal aberrations, Test System: Human lymphocytes, Metabolic Activation: None) “active; positive (structural changes and ploidy)”; (Test System: AMES SALMONELLA TYPHIMURIUM, Strain/Indicator: G46, Metabolic Activation: HOST-MEDIATED, Method: STANDARD PLATE) “active; positive”; (Test System: AMES SALMONELLA TYPHIMURIUM, Strain/Indicator: TA97A, Metabolic Activation: NONE, Method: STANDARD PLATE) “inactive; negative”; (Test System: AMES SALMONELLA TYPHIMURIUM, Strain/Indicator: TA97A, Metabolic Activation: PLANT, HOMOGENATE, S-14, Method: STANDARD PLATE) “inactive; negative”; (Test System: AMES SALMONELLA TYPHIMURIUM, Strain/Indicator: TA97A, Metabolic Activation: S-9, Method: STANDARD PLATE) “inactive; negative”; under setting [2], “inactive; negative”. Also, the mutagenic call was “inactive; negative” (Test System: AMES SALMONELLA TYPHIMURIUM, Strain/Indicator: TA98, Metabolic Activation: PLANT, HOMOGENATE, S-14, Method: STANDARD PLATE); “inactive; negative” (Test System: AMES SALMONELLA TYPHIMURIUM, Strain/Indicator: TA98, Metabolic Activation: RAT, LIVER, S-9, Method: STANDARD PLATE); “inactive; negative” (Test System: AMES SALMONELLA TYPHIMURIUM, Strain/Indicator: TA98, Metabolic Activation: S-9, NADPH GENERATING SYSTEM, Method: STANDARD PLATE); “inactive; negative” (Test System: AMES SALMONELLA TYPHIMURIUM, Strain/Indicator: TA98, Metabolic Activation: S-9, Method: STANDARD PLATE); “inactive; negative” (Test System: AMES SALMONELLA TYPHIMURIUM, Strain/Indicator: TA98, Metabolic Activation: WHEAT SEEDLING, S-14, Method: STANDARD PLATE); “active; positive” under setting [1]. For the same molecule, the mutagenic call is “inactive; negative” under setting [3]; “inactive; negative” (Test System: AMES SALMONELLA TYPHIMURIUM, Strain/Indicator: TA100, Metabolic Activation: PLANT, HOMOGENATE, S-14, Method: STANDARD PLATE); “inactive; negative” (Test System: AMES SALMONELLA TYPHIMURIUM, Strain/Indicator: TA100, Metabolic Activation: S-9, Method: STANDARD PLATE); “active; positive” (Test System: AMES SALMONELLA TYPHIMURIUM, Strain/Indicator: TA100, Metabolic Activation: S-9 MIX, Method: STANDARD PLATE); “inactive; negative” (Test System: AMES SALMONELLA TYPHIMURIUM, Strain/Indicator: TA102, Metabolic Activation: NONE, Method: STANDARD PLATE); “inactive; negative” (Test System: AMES SALMONELLA TYPHIMURIUM, Strain/Indicator: TA102, Metabolic Activation: RAT, LIVER, S-9, Method: STANDARD PLATE). For the same molecule, the mutagenic call was “inactive; negative” (Test System: AMES SALMONELLA TYPHIMURIUM, Strain/Indicator: TA102, Metabolic Activation: S-9, NADPH GENERATING SYSTEM, Method: STANDARD PLATE); “inactive; negative” (Test System: AMES SALMONELLA TYPHIMURIUM, Strain/Indicator: TA102, Metabolic Activation: WHEAT SEEDLING, S-14, Method: STANDARD PLATE); “inactive; negative” under setting [4]; “inactive; negative” (Test System: AMES SALMONELLA TYPHIMURIUM, Strain/Indicator: TA1535, Metabolic Activation: PLANT, HOMOGENATE, S-14, Method: STANDARD PLATE); “inactive; negative” (Test System: AMES SALMONELLA TYPHIMURIUM, Strain/Indicator: TA1535, Metabolic Activation: RAT, LIVER, S-9, Method: STANDARD PLATE); “inactive; negative” (Test System: AMES SALMONELLA TYPHIMURIUM, Strain/Indicator: TA1535, Metabolic Activation: S-9, NADPH GENERATING SYSTEM, Method: STANDARD PLATE). Besides, the mutagenic call is, setting by setting: (Test System: AMES SALMONELLA TYPHIMURIUM, Strain/Indicator: TA1535, Metabolic Activation: S-9, Method: STANDARD PLATE) “inactive; negative”; (Test System: AMES SALMONELLA TYPHIMURIUM, Strain/Indicator: TA1535, Metabolic Activation: WHEAT SEEDLING, S-14, Method: STANDARD PLATE) “inactive; negative”; under setting [5], “inactive; negative”; (Test System: AMES SALMONELLA TYPHIMURIUM, Strain/Indicator: TA1537, Metabolic Activation: S-9, NADPH GENERATING SYSTEM, Method: STANDARD PLATE) “inactive; negative”.
